Assay results: ChEMBL document CHEMBL6074671, “Discovery of Pyridine-2-Carboxamides Derivatives as Potent and Selective HPK1 Inhibitors for the Treatment of Cancer” (J Med Chem, 2024)
Values after ≈ are worked out from the molar mass of the structure shown.

Experiments:
[1] = dog, in vivo, po, 2 mg/kg
[2] = Toxicity in C57BL/6 mouse implanted with mouse MC38 cells assessed as effect on body weight loss at low dose, po BID measured after 12 days in presence of anti-PD-1; format: organism-based; conditions: in vivo, 288 h, time 12 day
[3] = Toxicity in C57BL/6 mouse implanted with mouse MC38 cells assessed as increase in survival at high dose, po BID measured after 12 days in presence of anti-PD-1; format: organism-based; conditions: in vivo, 288 h, time 12 day
[4] = biological target: Cyclin-dependent kinase 2 (Homo sapiens, UniProt P24941); assay: Inhibition of CDK2 (unknown origin)
[5] = Permeability of the compound in human Caco-2 cells measured after 90 mins by UPLC-MS/MS analysis; format: ADME, cell-based; conditions: read-out: permeability
[6] = biological target: Cytochrome P450 1A2 (Homo sapiens, UniProt P05177); assay: Inhibition of CYP1A2 in human liver microsomes using phenacetin O-demethylation as substrate incubated for 10 mins in presence of NADPH by LC-MS/MS analysis; format: ADME, Microsome
Cytochrome P450 1A2, sequence (P05177 whole entry): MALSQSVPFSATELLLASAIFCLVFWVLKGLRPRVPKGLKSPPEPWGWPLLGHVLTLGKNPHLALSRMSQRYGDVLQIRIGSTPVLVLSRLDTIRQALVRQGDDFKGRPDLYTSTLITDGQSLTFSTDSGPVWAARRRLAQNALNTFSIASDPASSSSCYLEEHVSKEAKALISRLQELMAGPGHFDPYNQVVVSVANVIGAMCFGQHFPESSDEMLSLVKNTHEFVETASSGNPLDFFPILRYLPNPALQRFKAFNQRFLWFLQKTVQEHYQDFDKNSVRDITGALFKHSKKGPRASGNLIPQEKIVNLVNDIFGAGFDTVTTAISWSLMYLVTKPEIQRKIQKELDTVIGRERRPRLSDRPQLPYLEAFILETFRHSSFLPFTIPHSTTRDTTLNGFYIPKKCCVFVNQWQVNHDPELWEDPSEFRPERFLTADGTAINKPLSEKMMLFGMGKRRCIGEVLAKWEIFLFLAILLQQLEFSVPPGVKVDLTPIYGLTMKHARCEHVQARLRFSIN

[7] = biological target: Tyrosine-protein kinase Lck (Homo sapiens, UniProt P06239); assay: Inhibition of LCK (unknown origin)
Tyrosine-protein kinase Lck, sequence (P06239 whole entry): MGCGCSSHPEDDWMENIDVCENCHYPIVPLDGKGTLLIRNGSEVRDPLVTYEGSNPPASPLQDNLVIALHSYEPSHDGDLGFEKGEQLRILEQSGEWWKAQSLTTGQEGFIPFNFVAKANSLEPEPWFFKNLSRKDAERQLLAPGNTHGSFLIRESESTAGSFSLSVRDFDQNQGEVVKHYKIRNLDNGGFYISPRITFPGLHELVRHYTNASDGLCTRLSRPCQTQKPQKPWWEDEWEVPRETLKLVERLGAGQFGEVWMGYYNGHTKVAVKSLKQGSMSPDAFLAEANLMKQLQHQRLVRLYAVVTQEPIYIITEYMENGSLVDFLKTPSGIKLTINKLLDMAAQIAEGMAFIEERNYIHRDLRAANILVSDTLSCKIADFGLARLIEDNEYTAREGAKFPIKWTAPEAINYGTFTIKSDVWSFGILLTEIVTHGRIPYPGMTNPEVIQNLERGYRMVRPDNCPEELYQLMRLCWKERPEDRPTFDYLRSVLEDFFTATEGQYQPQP

[8] = Solubility in compound in FessIF at pH 5.0 incubated for 24 hrs by HPLC-UV analysis; format: physicochemical
[9] = biological target: Tyrosine-protein kinase ITK/TSK (Homo sapiens, UniProt Q08881); assay: Inhibition of ITK (unknown origin)
[10] = biological target: Serine/threonine-protein kinase PAK 2 (Homo sapiens, UniProt Q13177); assay: Inhibition of PAK2 (unknown origin)
Serine/threonine-protein kinase PAK 2, sequence (Q13177 whole entry): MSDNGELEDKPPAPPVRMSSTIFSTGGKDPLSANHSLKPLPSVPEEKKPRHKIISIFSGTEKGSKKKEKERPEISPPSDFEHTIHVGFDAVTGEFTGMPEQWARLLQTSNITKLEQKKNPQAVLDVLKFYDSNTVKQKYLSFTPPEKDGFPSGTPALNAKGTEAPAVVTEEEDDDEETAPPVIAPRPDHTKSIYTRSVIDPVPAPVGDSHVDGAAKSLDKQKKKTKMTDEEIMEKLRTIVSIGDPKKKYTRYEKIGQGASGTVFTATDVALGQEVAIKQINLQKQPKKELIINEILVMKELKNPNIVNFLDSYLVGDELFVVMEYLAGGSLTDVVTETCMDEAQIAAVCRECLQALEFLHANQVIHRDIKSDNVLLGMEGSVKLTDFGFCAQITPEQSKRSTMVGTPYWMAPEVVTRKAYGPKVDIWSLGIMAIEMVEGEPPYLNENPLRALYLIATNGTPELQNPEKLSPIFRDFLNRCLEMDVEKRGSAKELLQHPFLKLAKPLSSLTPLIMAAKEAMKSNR

[11] = Toxicity in C57BL/6 mouse implanted with mouse MC38 cells assessed as increase in survival at low dose, po BID measured after 12 days; format: organism-based; conditions: in vivo, 288 h, time 12 day
[12] = biological target: Mitogen-activated protein kinase kinase kinase kinase 5 (Homo sapiens, UniProt Q9Y4K4); assay: Inhibition of human GST-tagged full length recombinant MAP4K5 expressed in insect cells; parameters: species or system Insect cell
[13] = Genotoxicity in Salmonella typhimurium TA100 incubated for 48 to 72 hrs in presence of S9 fraction by AMES test; format: toxicity, subcellular; conditions: salmonella enterica subsp. enterica serovar typhimurium, time 48-72 hrs
[14] = Effect on IFN-gamma secretion in human T cells by ELISA method; format: functional, cell-based; conditions: T-cell
[15] = in vivo; conditions: cynomolgus monkey, plasma, iv, 1 mg/kg
Description: Clearance in Cynomolgus monkey plasma at 1 mg/kg, iv

[16] = biological target: Cytochrome P450 2D6 (Homo sapiens, UniProt P10635); assay: Inhibition of CYP2D6 in human liver microsomes using O-demethylation as substrate incubated for 10 mins in presence of NADPH by LC-MS/MS analysis; format: ADME, Microsome
Cytochrome P450 2D6, sequence (P10635 whole entry): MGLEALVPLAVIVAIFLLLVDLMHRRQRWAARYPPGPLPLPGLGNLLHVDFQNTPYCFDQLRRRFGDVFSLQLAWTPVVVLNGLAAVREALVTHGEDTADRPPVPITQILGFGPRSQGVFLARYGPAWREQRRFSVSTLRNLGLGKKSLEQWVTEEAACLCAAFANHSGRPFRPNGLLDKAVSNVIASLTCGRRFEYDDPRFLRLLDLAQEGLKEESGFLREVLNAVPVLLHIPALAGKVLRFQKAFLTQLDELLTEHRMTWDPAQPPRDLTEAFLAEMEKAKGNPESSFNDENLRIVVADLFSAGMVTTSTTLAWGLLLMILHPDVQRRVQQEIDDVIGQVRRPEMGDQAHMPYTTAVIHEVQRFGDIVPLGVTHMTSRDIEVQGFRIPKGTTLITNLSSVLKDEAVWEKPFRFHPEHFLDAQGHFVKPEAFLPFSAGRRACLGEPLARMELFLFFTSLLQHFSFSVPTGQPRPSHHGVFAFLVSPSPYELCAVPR

[17] = Toxicity in Balb/c mouse assessed as effect on body weight loss at 1.5 to 12 mg/kg, po BID measured after 15 days; format: organism-based; conditions: in vivo, 360 h, dose 1.5-12 mg/kg, time 15 day
[18] = Plasma protein binding in mouse assessed as unbound fraction at 2 uM incubated for 4 hrs by LC-MS/MS analysis; format: ADME, cell-free
[19] = tested on: MC-38; assay: Synergistic antitumor activity against mouse MC38 cells implanted in C57BL/6 mouse model assessed as CDI value at low dose, po BID measured after 12 days in presence of anti-PD-1; format: functional; conditions: time 12 day
[20] = biological target: Mitogen-activated protein kinase 14 (Homo sapiens, UniProt Q16539); assay: Inhibition of p38 alpha (unknown origin)
Mitogen-activated protein kinase 14, sequence (Q16539 whole entry, the tested form may be a part): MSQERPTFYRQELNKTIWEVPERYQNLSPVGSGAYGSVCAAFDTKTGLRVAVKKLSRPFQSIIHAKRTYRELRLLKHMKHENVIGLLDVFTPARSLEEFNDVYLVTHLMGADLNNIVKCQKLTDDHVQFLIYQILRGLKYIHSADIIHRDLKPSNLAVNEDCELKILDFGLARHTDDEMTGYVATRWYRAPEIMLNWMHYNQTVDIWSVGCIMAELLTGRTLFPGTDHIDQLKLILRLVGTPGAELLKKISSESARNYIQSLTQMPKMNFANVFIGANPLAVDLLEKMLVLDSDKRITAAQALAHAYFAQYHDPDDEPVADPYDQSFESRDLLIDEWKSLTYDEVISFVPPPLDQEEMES

[21] = biological target: Mitogen-activated protein kinase kinase kinase kinase 1 (Homo sapiens, UniProt Q92918); assay: Inhibition of human recombinant wild type N-terminal HPK1 (1 to 346 residues) infected in insect Sf21 cells using fluorescein-PKC as substrate preincubated for 10 mins followed by substrate addition and measured after 90 mins by microplate reader based analysis; format: single protein
Mitogen-activated protein kinase kinase kinase kinase 1, sequence (Q92918 whole entry, the tested form may be a part): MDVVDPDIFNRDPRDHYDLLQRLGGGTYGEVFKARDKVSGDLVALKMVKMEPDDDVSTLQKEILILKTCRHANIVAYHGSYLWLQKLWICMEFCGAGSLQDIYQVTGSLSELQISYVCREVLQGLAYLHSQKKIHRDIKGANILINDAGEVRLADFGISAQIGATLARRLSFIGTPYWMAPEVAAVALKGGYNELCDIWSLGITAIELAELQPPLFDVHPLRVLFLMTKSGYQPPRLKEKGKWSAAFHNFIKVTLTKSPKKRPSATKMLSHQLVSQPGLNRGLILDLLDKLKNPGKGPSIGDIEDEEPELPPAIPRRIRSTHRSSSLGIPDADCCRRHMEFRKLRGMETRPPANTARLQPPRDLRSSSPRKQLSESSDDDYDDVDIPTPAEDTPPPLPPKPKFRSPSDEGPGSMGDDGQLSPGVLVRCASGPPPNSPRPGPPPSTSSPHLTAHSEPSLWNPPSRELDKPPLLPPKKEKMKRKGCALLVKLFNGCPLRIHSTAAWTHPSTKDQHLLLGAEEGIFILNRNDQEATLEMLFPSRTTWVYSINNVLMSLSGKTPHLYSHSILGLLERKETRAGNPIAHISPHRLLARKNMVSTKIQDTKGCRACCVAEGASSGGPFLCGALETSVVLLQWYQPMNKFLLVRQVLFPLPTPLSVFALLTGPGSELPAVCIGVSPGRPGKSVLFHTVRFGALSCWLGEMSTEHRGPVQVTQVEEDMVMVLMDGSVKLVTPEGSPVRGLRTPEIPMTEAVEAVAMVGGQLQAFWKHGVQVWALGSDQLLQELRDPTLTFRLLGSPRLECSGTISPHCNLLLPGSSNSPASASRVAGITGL

[22] = in vivo; conditions: Beagle, dog, plasma, iv, 1 mg/kg
Description: Clearance in Beagle dog plasma at 1 mg/kg, iv

[23] = tested on: CT26; assay: Antitumor activity against mouse CT26 cells implanted in Balb/c mouse model assessed as tumor growth inhibition administered as po dose BID measured after 15 days relative to control; format: functional; conditions: time 15 day
[24] = biological target: Proto-oncogene tyrosine-protein kinase Src (Homo sapiens, UniProt P12931); assay: Inhibition of SRC (unknown origin)
Proto-oncogene tyrosine-protein kinase Src, sequence (P12931 2-536 limits assumed): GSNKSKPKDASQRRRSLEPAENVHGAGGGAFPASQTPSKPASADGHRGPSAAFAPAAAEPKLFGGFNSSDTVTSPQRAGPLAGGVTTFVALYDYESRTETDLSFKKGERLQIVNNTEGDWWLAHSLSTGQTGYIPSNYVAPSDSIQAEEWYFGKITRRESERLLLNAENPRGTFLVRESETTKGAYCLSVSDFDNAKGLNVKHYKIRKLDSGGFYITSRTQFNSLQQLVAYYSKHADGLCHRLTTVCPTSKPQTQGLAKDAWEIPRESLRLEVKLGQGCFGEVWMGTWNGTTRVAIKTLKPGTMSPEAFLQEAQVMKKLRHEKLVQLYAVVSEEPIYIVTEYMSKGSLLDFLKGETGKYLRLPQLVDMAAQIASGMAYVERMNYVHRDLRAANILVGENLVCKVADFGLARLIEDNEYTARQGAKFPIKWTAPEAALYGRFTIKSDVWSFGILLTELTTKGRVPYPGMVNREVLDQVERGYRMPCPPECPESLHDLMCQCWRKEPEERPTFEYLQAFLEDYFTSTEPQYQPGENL

[25] = in vivo; conditions: cynomolgus monkey, iv, 1 mg/kg
Description: Volume of distribution in Cynomolgus monkey at 1 mg/kg, iv

[26] = biological target: Tyrosine-protein kinase JAK3 (Homo sapiens, UniProt P52333); assay: Inhibition of JAK3 (unknown origin)
[27] = biological target: Serine/threonine-protein kinase 4 (Homo sapiens, UniProt Q13043); assay: Inhibition of MST1 (unknown origin)
Serine/threonine-protein kinase 4, sequence (Q13043 whole entry): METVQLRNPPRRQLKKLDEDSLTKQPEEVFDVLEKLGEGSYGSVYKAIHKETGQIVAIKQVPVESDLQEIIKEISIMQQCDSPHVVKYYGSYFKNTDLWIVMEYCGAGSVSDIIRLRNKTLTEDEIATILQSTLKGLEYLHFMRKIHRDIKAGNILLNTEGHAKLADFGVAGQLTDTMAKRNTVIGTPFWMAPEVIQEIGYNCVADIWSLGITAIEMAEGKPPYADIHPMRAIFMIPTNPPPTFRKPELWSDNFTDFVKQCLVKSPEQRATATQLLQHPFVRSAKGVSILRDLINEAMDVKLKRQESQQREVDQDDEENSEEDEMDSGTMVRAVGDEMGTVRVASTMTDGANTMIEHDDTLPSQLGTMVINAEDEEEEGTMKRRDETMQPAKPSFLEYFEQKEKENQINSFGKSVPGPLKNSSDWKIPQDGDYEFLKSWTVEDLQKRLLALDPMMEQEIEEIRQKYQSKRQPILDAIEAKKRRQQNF

[28] = Half life in Balb/c mouse at 10 mg/kg, po; format: ADME, organism-based; conditions: in vivo
[29] = biological target: Mitogen-activated protein kinase kinase kinase 7 (Homo sapiens, UniProt O43318); assay: Inhibition of TAK1 (unknown origin)
Mitogen-activated protein kinase kinase kinase 7, sequence (O43318 whole entry): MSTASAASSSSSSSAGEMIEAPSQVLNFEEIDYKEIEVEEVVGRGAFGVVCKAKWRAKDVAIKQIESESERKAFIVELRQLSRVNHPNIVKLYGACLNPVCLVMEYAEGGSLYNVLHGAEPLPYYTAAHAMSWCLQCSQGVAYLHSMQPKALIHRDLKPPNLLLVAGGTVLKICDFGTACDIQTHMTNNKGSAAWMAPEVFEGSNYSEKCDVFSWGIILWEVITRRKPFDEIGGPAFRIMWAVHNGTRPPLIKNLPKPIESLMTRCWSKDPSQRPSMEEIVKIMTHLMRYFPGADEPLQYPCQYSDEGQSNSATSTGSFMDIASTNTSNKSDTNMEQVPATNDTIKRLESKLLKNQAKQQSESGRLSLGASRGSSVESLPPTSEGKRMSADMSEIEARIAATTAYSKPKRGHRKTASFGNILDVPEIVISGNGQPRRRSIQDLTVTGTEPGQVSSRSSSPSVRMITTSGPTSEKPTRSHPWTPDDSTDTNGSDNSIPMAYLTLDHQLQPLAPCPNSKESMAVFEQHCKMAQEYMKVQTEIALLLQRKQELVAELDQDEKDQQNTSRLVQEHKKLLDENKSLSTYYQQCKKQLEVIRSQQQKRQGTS

[30] = in vivo; conditions: cynomolgus monkey, po, 2 mg/kg

Compound: COc1cc(Nc2ccc3c(n2)CN(C)C32CCN(C3COC3)CC2)c(C(N)=O)nc1-c1cccc2c1ncn2C
- AUC/dose [1]: 563 ng·h/mL
- Activity [2]: Non-toxic
- Activity [3]: Non-toxic
- IC50 [4]: > 10 µM
- Papp at […] [5]: 4.2 ×10⁻⁶ cm/s
- IC50 [6]: > 50 µM
- IC50 [7]: 0.521 µM
- solubility at 24 h [8]: 134 µM (≈ 74.3 µg/mL)
- IC50 [9]: > 10 µM
- IC50 [10]: > 10 µM
- Activity [11]: Non-toxic
- IC50 [12]: 0.185 µM
- Activity [13]: Non-toxic
- EC50 [14]: 0.0492 µM
- clearance [15]: 11.4 mL/min/kg
- IC50 [16]: > 50 µM
- Activity [17]: Non-toxic
- fraction unbound at 4 h, 2 µM [18]: 0.079
- Activity [19]: 0.78
- IC50 [20]: > 10 µM
- IC50 [21]: < 0.00051 µM
- clearance [22]: 11.4 mL/min/kg
- TGI [23]: 64.3%
- IC50 [24]: 2.11 µM
- Vd [25]: 5.07 L/kg
- IC50 [26]: > 10 µM
- IC50 [27]: 0.5 µM
- half-life [28]: 1.45 h
- IC50 [29]: > 10 µM
- bioavailability [30]: 42%
